Assay results reported in US12648975B2, “Lactobacillus plantarum against Helicobacter pylori infection, and use thereof” (WECARE PROBIOTICS CO., LTD., priority 2021, dated 2026).

How the values were obtained:
Helicobacter pylori [1] = experiment: Inhibition zone experiment (Oxford cup method), Example 6; assay type: cell-based; conditions: 100 μL sample
Experimental: In this example, an inhibitory effect of the Lactobacillus plantarum in Example 3 on the growth of Helicobacter pylori was verified. Steps are described below. • (1) Helicobacter pylori at −80° C. was taken out, coated on a Columbia blood agar medium containing 5% sheep blood (v/v) for activation and culture and cultured in a microaerobic environment for 48 h at 37° C. • (2) The Lactobacillus plantarum was inoculated in an MRS liquid medium and cultured for 18 h at 37° C. for activation two consecutive times to obtain an activation solution. The activation solution was inoculated in an MRS liquid medium at an inoculum volume of 2% (v/v) and cultured for 18 h at 37° C. to obtain a bacterial solution. The bacterial solution was centrifuged at 8000 g for 10 min, and supernatant was taken and passed through a 0.22 μm sterile filtration membrane to obtain supernatant of the Lactobacillus plantarum. […] Effects of inhibiting the growth of Helicobacter pylori at 48 h and 72 h by the Lactobacillus plantarum were determined through the Oxford cup method.

Helicobacter pylori [2] = experiment: Inhibition zone experiment (Oxford cup method) of health care product, Example 9; assay type: cell-based; conditions: 100 μL sample
Experimental: The health care product for inhibiting Helicobacter pylori infection was prepared into a suspension (a density of Lactobacillus plantarum Lp05 was 10^9 CFU/mL) with water, 100 μL suspension was taken and coated onto a surface of a punctured Colombian blood agar medium (a volume of the medium was 20 mL) containing 5% sheep blood without an antibiotic, and any one of the following groups of liquids was added separately to form different experimental groups: 100 μL suspension of the health care product to be tested, 100 μL positive control (a metronidazole solution having a mass concentration of 0.025%), 100 μL negative control (a PBS buffer) and a blank control (100 μL MRS liquid medium). Effects of inhibiting the growth of Helicobacter pylori at 48 h and 72 h were determined through an Oxford cup method.

## Cc1ncc([N+](=O)[O-])n1CCO [Positive control, metronidazole]
Helicobacter pylori [1]; 48 h of culture
  Diameter of Inhibition Zone at 48 h (mm): 11.2 ± 2.3 mm
Helicobacter pylori [1]; 72 h of culture
  Diameter of Inhibition Zone at 72 h (mm): 12.4 ± 3.1 mm
Helicobacter pylori [2]; 48 h of culture
  Diameter of Inhibition Zone at 48 h (mm): 9.3 ± 2.5 mm
Helicobacter pylori [2]; 72 h of culture
  Diameter of Inhibition Zone at 72 h (mm): 9.8 ± 2.5 mm
